Experimental data as given in patent publication US11208386B2, “Inhibitors of protein arginine deiminases (PADs) and methods of preparation and use thereof” (University of Massachusetts, priority 2016, dated 2021).

How the values were obtained:
Format in all cases: biochemical
PAD2 = target: T1, PAD2 (Homo sapiens, UniProt Q9Y2J8); test: Inactivation kinetics, PAD2; details: for kinact/KI: a: single kobs determined, b: from a linear fit, other footnotes: from kinact and KI; for Fold PAD2 Selectivity: kinact/KI relative to least inhibited isozyme (1.0); for Ki / kinact: PAD2, table footnote
T1 construct: made in house
T1 sequence (Q9Y2J8 whole entry): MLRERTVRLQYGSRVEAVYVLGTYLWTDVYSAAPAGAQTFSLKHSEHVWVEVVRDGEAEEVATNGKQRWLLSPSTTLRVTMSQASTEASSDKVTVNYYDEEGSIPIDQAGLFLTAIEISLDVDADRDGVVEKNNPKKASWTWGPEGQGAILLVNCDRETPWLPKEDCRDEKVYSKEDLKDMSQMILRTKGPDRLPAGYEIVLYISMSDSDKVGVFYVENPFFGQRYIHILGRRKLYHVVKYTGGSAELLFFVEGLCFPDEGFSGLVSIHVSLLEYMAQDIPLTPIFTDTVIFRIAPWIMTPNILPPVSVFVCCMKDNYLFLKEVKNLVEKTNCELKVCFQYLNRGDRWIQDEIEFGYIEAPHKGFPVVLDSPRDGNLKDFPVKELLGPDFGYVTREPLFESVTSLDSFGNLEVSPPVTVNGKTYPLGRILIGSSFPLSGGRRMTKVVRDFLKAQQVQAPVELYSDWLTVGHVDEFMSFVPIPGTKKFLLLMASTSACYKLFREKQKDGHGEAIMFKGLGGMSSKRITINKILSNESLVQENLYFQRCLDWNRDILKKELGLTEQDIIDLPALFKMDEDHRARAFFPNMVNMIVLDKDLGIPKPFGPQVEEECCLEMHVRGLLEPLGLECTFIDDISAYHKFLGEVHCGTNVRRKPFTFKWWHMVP
Protocol: (§1) Inactivation kinetic parameters were determined by incubating PAD1, 2, or 4 (2.0 μM) or PAD3 (5.0 μM) in a pre-warmed (10 min; 37° C.) inactivation mixture (50 mM HEPES, 10 mM CaCl2, and 2 mM DTT, pH 7.6, with a final volume of 60 μL) containing various concentrations of inhibitor. Aliquots were removed at various time points and added to a pre-warmed (10 min, 37° C.) reaction mixture (50 mM HEPES, 50 mM NaCl, 10 mM CaC2, 2 mM DTT, and 10 mM BAEE or 10 mM BAA in the case of PAD3; pH 7.6). After 15 min, reactions were quenched in liquid nitrogen and citrulline production quantified using the COLDER assay. […] In Vitro Labeling of PADs with “Clickable” Probes BB-F-Yne (5u), BB-Cl-Yne (5v) and BIFYne (5w)

PAD4 = target: T2, PAD4 (Homo sapiens, UniProt Q9UM07); test: Inactivation kinetics, PAD4; details: for kinact/KI: a: single kobs determined, b: from a linear fit; for Fold PAD4 Selectivity: kinact/KI relative to least inhibited isozyme (1.0)
T2 construct: made in house
T2 sequence (Q9UM07 whole entry): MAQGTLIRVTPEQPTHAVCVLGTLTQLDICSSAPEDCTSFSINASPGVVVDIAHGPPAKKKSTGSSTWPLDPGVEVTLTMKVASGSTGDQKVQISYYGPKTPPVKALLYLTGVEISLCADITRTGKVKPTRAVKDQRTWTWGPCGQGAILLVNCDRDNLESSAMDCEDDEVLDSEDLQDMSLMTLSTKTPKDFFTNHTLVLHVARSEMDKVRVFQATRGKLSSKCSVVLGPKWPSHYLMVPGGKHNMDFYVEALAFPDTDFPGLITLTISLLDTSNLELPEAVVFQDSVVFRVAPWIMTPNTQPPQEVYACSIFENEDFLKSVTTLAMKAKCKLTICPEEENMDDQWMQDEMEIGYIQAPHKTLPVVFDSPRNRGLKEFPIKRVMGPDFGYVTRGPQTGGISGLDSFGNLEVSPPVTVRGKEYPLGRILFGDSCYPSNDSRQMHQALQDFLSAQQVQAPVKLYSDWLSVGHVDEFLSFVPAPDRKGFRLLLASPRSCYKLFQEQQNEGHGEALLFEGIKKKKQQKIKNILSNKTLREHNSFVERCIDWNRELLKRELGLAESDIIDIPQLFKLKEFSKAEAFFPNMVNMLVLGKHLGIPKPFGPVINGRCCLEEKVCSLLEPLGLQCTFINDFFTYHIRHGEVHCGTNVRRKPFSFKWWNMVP
Protocol: as §1

PAD1 = target: T3, PAD1 (Homo sapiens, UniProt Q9ULC6); test: Inactivation kinetics, PAD1; details: for kinact/KI: a: single kobs determined, b: from a linear fit; for Fold PAD1 Selectivity: kinact/KI relative to least inhibited isozyme (1.0)
T3 construct: made in house
T3 sequence (Q9ULC6 1-663): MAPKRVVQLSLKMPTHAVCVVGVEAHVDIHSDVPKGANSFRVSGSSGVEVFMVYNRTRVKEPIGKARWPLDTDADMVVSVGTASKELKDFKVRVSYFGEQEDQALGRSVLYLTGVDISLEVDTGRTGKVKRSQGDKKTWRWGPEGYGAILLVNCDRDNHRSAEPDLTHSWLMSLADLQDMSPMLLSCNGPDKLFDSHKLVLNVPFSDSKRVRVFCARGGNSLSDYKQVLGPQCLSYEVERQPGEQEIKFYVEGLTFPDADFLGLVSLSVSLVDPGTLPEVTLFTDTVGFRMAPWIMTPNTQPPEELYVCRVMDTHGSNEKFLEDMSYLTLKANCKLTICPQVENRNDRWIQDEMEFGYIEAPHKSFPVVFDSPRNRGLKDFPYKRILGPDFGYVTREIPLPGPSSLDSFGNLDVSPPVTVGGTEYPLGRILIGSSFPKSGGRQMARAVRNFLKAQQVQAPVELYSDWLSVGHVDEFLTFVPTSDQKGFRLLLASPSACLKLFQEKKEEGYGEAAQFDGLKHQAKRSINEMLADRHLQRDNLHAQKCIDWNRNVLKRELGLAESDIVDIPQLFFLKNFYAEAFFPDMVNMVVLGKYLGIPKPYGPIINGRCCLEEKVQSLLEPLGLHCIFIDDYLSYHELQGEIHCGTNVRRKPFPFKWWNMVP
Protocol: as §1

PAD3 = target: T4, PAD3 (Homo sapiens, UniProt Q9ULW8); test: Inactivation kinetics, PAD3; details: for kinact/KI: a: single kobs determined; for Fold PAD3 Selectivity: kinact/KI relative to least inhibited isozyme (1.0)
T4 construct: made in house
T4 sequence (Q9ULW8 1-664): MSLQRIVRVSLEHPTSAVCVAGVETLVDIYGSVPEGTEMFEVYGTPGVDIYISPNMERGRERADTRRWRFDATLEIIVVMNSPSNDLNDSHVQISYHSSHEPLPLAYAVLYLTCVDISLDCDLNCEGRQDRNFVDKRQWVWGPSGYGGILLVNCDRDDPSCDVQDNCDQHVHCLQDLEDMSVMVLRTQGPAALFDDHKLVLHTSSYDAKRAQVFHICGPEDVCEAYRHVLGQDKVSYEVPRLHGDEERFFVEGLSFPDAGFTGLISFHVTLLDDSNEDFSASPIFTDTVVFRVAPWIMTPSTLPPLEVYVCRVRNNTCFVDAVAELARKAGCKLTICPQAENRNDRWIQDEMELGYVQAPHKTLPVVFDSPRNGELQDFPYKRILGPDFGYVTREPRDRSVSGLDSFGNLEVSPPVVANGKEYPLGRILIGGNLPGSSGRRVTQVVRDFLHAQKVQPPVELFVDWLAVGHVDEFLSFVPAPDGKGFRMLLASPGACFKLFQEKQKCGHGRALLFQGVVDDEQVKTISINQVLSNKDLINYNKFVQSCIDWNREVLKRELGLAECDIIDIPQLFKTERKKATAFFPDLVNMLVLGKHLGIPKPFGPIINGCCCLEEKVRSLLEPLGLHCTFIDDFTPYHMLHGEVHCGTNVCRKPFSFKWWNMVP
Protocol: as §1

SMILES	kinact/KI (PAD2)	Fold PAD2 Selectivity (PAD2)	kinact/KI (PAD4)	Fold PAD4 Selectivity (PAD4)	kinact/KI (PAD1)	Fold PAD1 Selectivity (PAD1)	kinact/KI (PAD3)	Fold PAD3 Selectivity (PAD3)	Ki (PAD2)	kinact (PAD2)
CCN1Cc2cccc(C(=O)N[C@@H](CCCNC(=N)CF)c3nc4c(OC)cccc4[nH]3)c2C1=O [Compound 8i, N1-(2-ethyl-3-oxoisoindoline)benzoyl-N5-(2-fluoro-1-iminoethyl)-1-(4-methoxy-1H-benzo[d]imidazol-2-yl)-L-ornithine]	396 M⁻¹ s⁻¹	32 fold	12.5 M⁻¹ s⁻¹	1.0 fold	1340 M⁻¹ s⁻¹	107 fold	153 M⁻¹ s⁻¹	12 fold		
CCN1Cc2cccc(C(=O)N[C@@H](CCCNC(=N)CF)c3nc4ccccc4[nH]3)c2C1=O [Compound 8a, N1-(2-ethyl-3-oxoisoindoline)benzol-N5-(2-fluoro-1-iminoethyl)-1-(1H-benzo[d]imidazol-2-yl)-L-ornithine]	240 M⁻¹ s⁻¹	1.0 fold	248 M⁻¹ s⁻¹	1.0 fold	807 M⁻¹ s⁻¹	3.4 fold	248 M⁻¹ s⁻¹	1.0 fold		
CCn1c([C@H](CCCNC(=N)CF)NC(=O)c2cccc3c2C(=O)NC3)nc2ccccc21 [Compound 7e, N1-(3-oxoisoindoline)benzoyl-N5-(2-fluoro-1-iminoethyl)-1-(1-ethyl-benzo[d]imidazol-2-yl)-L-ornithine]	1030 M⁻¹ s⁻¹	56 fold	31.7 M⁻¹ s⁻¹	1.7 fold	675 M⁻¹ s⁻¹	37 fold	18.3 M⁻¹ s⁻¹	1.0 fold	32.9 µM	0.0337 s⁻¹
CC(C)n1c([C@H](CCCNC(=N)CF)NC(=O)c2ccccc2C(=O)OC(C)(C)C)nc2ccccc21 [Compound 9e, N1-(2-tert-butylcarboxy)benzoyl-N5-(2-fluoro-1-iminoethyl)-1-(1-isopropyl-benzo[d]imidazol-2-yl)-L-omithine]	50.2 M⁻¹ s⁻¹	19 fold	2.67 M⁻¹ s⁻¹	1.0 fold	23.7 M⁻¹ s⁻¹	8.9 fold	35 M⁻¹ s⁻¹	13 fold		
CCn1c([C@H](CCCNC(=N)CF)NC(=O)c2ccc(-c3ccccc3)cc2)nc2ccccc21 [Compound 5i, N1-[1,4′-Phenyl]benzoyl-N5-(2-fluoro-1-iminoethyl)-1-(1-ethyl-benzo[d]imidazol-2-yl)-L-omithine]	19.3 M⁻¹ s⁻¹	39 fold	0.5 M⁻¹ s⁻¹	1.0 fold	12.7 M⁻¹ s⁻¹	25 fold	30 M⁻¹ s⁻¹	60 fold		
N=C(CF)NCCC[C@H](NC(=O)c1ccc(-c2ccc(F)cc2)cc1)c1nc2cc(F)c(F)cc2[nH]1 [Compound 5s, N1-4′-F-[1,1′-Phenyl]benzoyl-N5-(2-fluoro-1-iminoethyl)-1-(5,6-difluoro-1H-benzo[d]imidazol-2-yl)-L-omithine]	23.7 M⁻¹ s⁻¹	1.3 fold	67.3 M⁻¹ s⁻¹	3.7 fold	29.8 M⁻¹ s⁻¹	1.6 fold	18.3 M⁻¹ s⁻¹	1.0 fold		

Further lines, results first:

kinact/KI (PAD2)	Fold PAD2 Selectivity (PAD2)	kinact/KI (PAD4)	Fold PAD4 Selectivity (PAD4)	kinact/KI (PAD1)	Fold PAD1 Selectivity (PAD1)	kinact/KI (PAD3)	Fold PAD3 Selectivity (PAD3)	Ki (PAD2)	kinact (PAD2)	SMILES
527 M⁻¹ s⁻¹	31 fold	16.8 M⁻¹ s⁻¹	1.0 fold	650 M⁻¹ s⁻¹	39 fold	29.2 M⁻¹ s⁻¹	1.7 fold			CCn1c([C@H](CCCNC(=N)CF)NC(=O)c2ccccc2C(=O)O)nc2ccccc21 [Compound 6e, N1-(2-Carboxyl)benzoyl-N5-(2-fluoro-1-iminoethyl)-1-(1-ethyl-benzo[d]imidazol-2-yl)-L-ornithine]
308 M⁻¹ s⁻¹	1.9 fold	235 M⁻¹ s⁻¹	1.5 fold	1120 M⁻¹ s⁻¹	7.0 fold	160 M⁻¹ s⁻¹	1.0 fold			COc1cccc2c1nc([C@H](CCCNC(=N)CCl)NC(=O)c1ccccc1C(=O)O)n2C [Compound 6j]
3540 M⁻¹ s⁻¹	106 fold	38.3 M⁻¹ s⁻¹	1.1 fold	996 M⁻¹ s⁻¹	30 fold	33.5 M⁻¹ s⁻¹	1.0 fold	12.8 µM	0.0455 s⁻¹	COc1cccc2c1nc([C@H](CCCNC(=N)CF)NC(=O)c1cccc3c1C(=O)N(C)C3)n2C [8a′]
1570 M⁻¹ s⁻¹	77 fold	75 M⁻¹ s⁻¹	3.8 fold	766 M⁻¹ s⁻¹	38 fold	20.3 M⁻¹ s⁻¹	1.0 fold			COc1cccc2c1nc([C@H](CCCNC(=N)CF)NC(=O)c1cccc3c1C(=O)N(C1CC1)C3)n2C [Compound 8s]
720 M⁻¹ s⁻¹	2.3 fold	308 M⁻¹ s⁻¹	1.0 fold	1530 M⁻¹ s⁻¹	5.0 fold	313 M⁻¹ s⁻¹	1.0 fold			CCN1Cc2cccc(C(=O)N[C@@H](CCCNC(=N)CCl)c3nc4c(OC)cccc4[nH]3)c2C1=O [Compound 8j, N1-(2-ethyl-3-oxoisoindoline)benzoyl-N5-(2-chloro-1-iminoethyl)-1-(4-methoxy-1H-benzo[d]imidazol-2-yl)-L-ornithine]
1020 M⁻¹ s⁻¹	32 fold	31.7 M⁻¹ s⁻¹	1.0 fold	1180 M⁻¹ s⁻¹	37 fold	296 M⁻¹ s⁻¹	9.3 fold			CCN1Cc2cccc(C(=O)N[C@@H](CCCNC(=N)CCl)c3nc4cc(OC)ccc4n3C)c2C1=O [Compound 8p, N1-(2-ethyl-3-oxoisoindoline)benzoyl-N5-(2-chloro-1-iminoethyl)-1-(5-methoxy-1-methyl-benzo[d]imidazol-2-yl)-L-ornithine]
40.5 M⁻¹ s⁻¹	1.0 fold	51.8 M⁻¹ s⁻¹	1.3 fold	112 M⁻¹ s⁻¹	2.8 fold	100 M⁻¹ s⁻¹	2.5 fold			Cn1c([C@H](CCCNC(=N)CCl)NC(=O)c2ccc(-c3ccccc3)cc2)nc2ccccc21 [Compound 5h, N1-[1,4′-Phenyl]benzol-N5-(2-chloro-1-iminoethyl)-1-(1-methyl-benzo[d]imidazol-2-yl)-L-ornithine]
413 M⁻¹ s⁻¹	8.9 fold	48.5 M⁻¹ s⁻¹	1.0 fold	1140 M⁻¹ s⁻¹	25 fold	46.7 M⁻¹ s⁻¹	1.0 fold			Cn1c([C@H](CCCNC(=N)CF)NC(=O)c2cccc3c2C(=O)NC3)nc2ccccc21 [Compound 7c]
